#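 How tested: cells in 96-well plates exposed to compound for 48 hours at five concentrations. GI50: concentration for 50% inhibition of growth.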 Calls of active or inactive are those of the source. Rule as the data show it: active = GI50 up to about 1.1 µM and inactive = higher. Non-standard residues stand in square brackets, D forms with d. Residues, ends and D or L forms follow the SMILES beside them.
# What was measured:
# Assay in all cases: NCI-60 cell line screen, 48 h
# ACHN = test system: ACHN
# HOP-62 = test system: HOP-62
# HCT-116 = test system: HCT-116
# 786-0 = test system: 786-0
# SN12C = test system: SN12C
# MOLT-4 = test system: MOLT-4
# U-251 = test system: U-251
# MCF7 = test system: MCF7
# NCI-H226 = test system: NCI-H226
# TK-10 = test system: TK-10
# HOP-92 = test system: HOP-92
# IGROV-1 = test system: IGROV-1
# SF-295 = test system: SF-295
# NCI-H522 = test system: NCI-H522
# UO-31 = test system: UO-31
# SK-MEL-2 = test system: SK-MEL-2
# NCI-H460 = test system: NCI-H460
# SF-268 = test system: SF-268
# NCI-H23 = test system: NCI-H23
# CAKI-1 = test system: CAKI-1
Structure (SMILES),GI50 (ACHN),GI50 (HOP-62),GI50 (HCT-116),GI50 (786-0),GI50 (SN12C),GI50 (MOLT-4),GI50 (U-251),GI50 (MCF7),GI50 (NCI-H226),GI50 (TK-10),GI50 (HOP-92),GI50 (IGROV-1),GI50 (SF-295),GI50 (NCI-H522),GI50 (UO-31),GI50 (SK-MEL-2),GI50 (NCI-H460),GI50 (SF-268),GI50 (NCI-H23),GI50 (CAKI-1)
CCOC(=O)c1nc2ccccc2nc1Oc1ccc(OC)cc1,> 100 µM (inactive),> 100 µM (inactive),> 100 µM (inactive),> 100 µM (inactive),> 100 µM (inactive),> 100 µM (inactive),> 100 µM (inactive),> 100 µM (inactive),> 100 µM (inactive),> 100 µM (inactive),> 100 µM (inactive),> 100 µM (inactive),> 100 µM (inactive),29 µM (inactive),> 100 µM (inactive),> 100 µM (inactive),> 100 µM (inactive),> 100 µM (inactive),–,–
CCOC(=O)Cc1csc2[n+]1C(=O)/C(=C/c1cccc(OC)c1O)S2,69.5 µM (inactive),> 100 µM (inactive),45.5 µM (inactive),68.7 µM (inactive),81.5 µM (inactive),4.43 µM (inactive),0.192 µM (active),45.3 µM (inactive),> 100 µM (inactive),46.2 µM (inactive),93.8 µM (inactive),45.4 µM (inactive),73.5 µM (inactive),–,28.7 µM (inactive),45 µM (inactive),41.9 µM (inactive),–,33.7 µM (inactive),59.2 µM (inactive)
Cc1ccc2nc(SCC(=O)N/N=C3\C(=O)Nc4ccccc43)n(-c3ccccc3)c(=O)c2c1,13.8 µM (inactive),12.2 µM (inactive),15.1 µM (inactive),16 µM (inactive),15.7 µM (inactive),17.6 µM (inactive),12.3 µM (inactive),16.1 µM (inactive),16.2 µM (inactive),15.5 µM (inactive),14.3 µM (inactive),–,15.8 µM (inactive),–,2.02 µM (inactive),1.69 µM (inactive),15.6 µM (inactive),13.7 µM (inactive),16.4 µM (inactive),18.6 µM (inactive)
Cc1cc(S(=O)(=O)[N-]/C(=N/S(=O)(=O)c2ccc(Cl)cc2)[n+]2ccc(N(C)C)cc2)c(S)cc1Cl,> 100 µM (inactive),43.5 µM (inactive),20.5 µM (inactive),> 100 µM (inactive),–,0.656 µM (active),47 µM (inactive),47.9 µM (inactive),33.8 µM (inactive),49.2 µM (inactive),–,> 100 µM (inactive),40.2 µM (inactive),28.7 µM (inactive),79.4 µM (inactive),> 100 µM (inactive),48.3 µM (inactive),89.9 µM (inactive),> 100 µM (inactive),> 100 µM (inactive)
CN(Cc1cccc2ccccc12)Cc1cccc2ccccc12,37.6 µM (inactive),45.6 µM (inactive),13.4 µM (inactive),37.8 µM (inactive),36.6 µM (inactive),15.3 µM (inactive),22.6 µM (inactive),20.7 µM (inactive),30.9 µM (inactive),> 100 µM (inactive),–,32.2 µM (inactive),26.7 µM (inactive),19 µM (inactive),36.6 µM (inactive),14.1 µM (inactive),40.6 µM (inactive),41.6 µM (inactive),26.6 µM (inactive),50.1 µM (inactive)
N[C@@H]1C[C@H](N)c2c(Cl)sc(Cl)c21,> 100 µM (inactive),> 100 µM (inactive),> 100 µM (inactive),> 100 µM (inactive),> 100 µM (inactive),> 100 µM (inactive),> 100 µM (inactive),> 100 µM (inactive),> 100 µM (inactive),–,> 100 µM (inactive),> 100 µM (inactive),> 100 µM (inactive),–,> 100 µM (inactive),> 100 µM (inactive),> 100 µM (inactive),–,> 100 µM (inactive),> 100 µM (inactive)
COc1ccc(C2SCC(=O)N2NC(=O)c2ccc(NC(C)=O)cc2)c(OC)c1 (stereo not given),> 100 µM (inactive),> 100 µM (inactive),> 100 µM (inactive),> 100 µM (inactive),> 100 µM (inactive),> 100 µM (inactive),33.6 µM (inactive),> 100 µM (inactive),> 100 µM (inactive),> 100 µM (inactive),> 100 µM (inactive),> 100 µM (inactive),> 100 µM (inactive),–,> 100 µM (inactive),> 100 µM (inactive),> 100 µM (inactive),> 100 µM (inactive),> 100 µM (inactive),–
COc1cc2c(c(OC)c1OC)-c1ccc(SC)cc1C(=O)CC2,< 0.01 µM (active),–,< 0.01 µM (active),< 0.01 µM (active),< 0.0421 µM (active),< 0.01 µM (active),< 0.01 µM (active),< 0.01 µM (active),< 0.01 µM (active),> 100 µM (inactive),–,< 0.01 µM (active),< 0.01 µM (active),< 0.01 µM (active),–,> 100 µM (inactive),< 0.01 µM (active),–,< 0.01 µM (active),< 0.0227 µM (active)
CC1OC2OC3C(OCC(O)C3O)OC(=O)[C@]34CCC(C)(C)CC3C3=CCC5[C@@]6(C)C[C@H](O)[C@H](OC7OC(CO)C(O)C(O)C7OC7OCC(OC(=O)CC(C)(O)CC(=O)OC1C(O)C2O)C(O)C7O)[C@@](C)(CO)C6CC[C@@]5(C)[C@]3(C)CC4 (stereo not given in full),6.34 µM (inactive),2.75 µM (inactive),5.75 µM (inactive),12.1 µM (inactive),9.53 µM (inactive),8.89 µM (inactive),3.48 µM (inactive),13 µM (inactive),14.9 µM (inactive),8.79 µM (inactive),2.32 µM (inactive),5.71 µM (inactive),3.42 µM (inactive),3.67 µM (inactive),6.03 µM (inactive),7.91 µM (inactive),11.6 µM (inactive),2.45 µM (inactive),3.1 µM (inactive),–
CC(C)C[C@H](NC(=O)[C@H](CC(C)C)NC(=O)[C@@H](Cc1c[nH]c2ccccc12)NC(=O)[C@H](Cc1ccccc1)NC(=O)[C@@H](Cc1c[nH]c2ccccc12)NC(=O)[C@H](CCC(N)=O)NC(=O)[C@H](CCC(N)=O)NC(=O)[C@H]1CCCN1C(=O)[C@@H](N)CCCCN)C(N)=O (H-K[dP]QQ[dW]F[dW]LL-NH2),–,> 100 µM (inactive),> 100 µM (inactive),–,> 100 µM (inactive),> 100 µM (inactive),> 100 µM (inactive),> 100 µM (inactive),> 100 µM (inactive),–,> 100 µM (inactive),> 100 µM (inactive),> 100 µM (inactive),> 100 µM (inactive),> 100 µM (inactive),> 100 µM (inactive),> 100 µM (inactive),> 100 µM (inactive),> 100 µM (inactive),–
CCOC(=O)c1cc2c([nH]1)c(O)cc1c2ccn1Cc1ccccc1,–,17.7 µM (inactive),11.6 µM (inactive),18.1 µM (inactive),20.2 µM (inactive),1.91 µM (inactive),16.7 µM (inactive),12.5 µM (inactive),15.1 µM (inactive),–,13.5 µM (inactive),19.3 µM (inactive),15.8 µM (inactive),–,14.9 µM (inactive),20.4 µM (inactive),19.5 µM (inactive),19.5 µM (inactive),13.7 µM (inactive),22 µM (inactive)
COc1cc([N+](=O)[O-])c(S(=O)(=O)O)cc1-n1nc(-c2ccccc2)n[n+]1-c1cc(S(=O)(=O)[O-])c([N+](=O)[O-])cc1OC,> 100 µM (inactive),> 100 µM (inactive),> 100 µM (inactive),> 100 µM (inactive),> 100 µM (inactive),> 100 µM (inactive),> 100 µM (inactive),> 100 µM (inactive),> 100 µM (inactive),–,–,> 100 µM (inactive),> 100 µM (inactive),> 100 µM (inactive),> 100 µM (inactive),> 100 µM (inactive),> 100 µM (inactive),> 100 µM (inactive),> 100 µM (inactive),> 100 µM (inactive)
c1cc2nnnn2nc1N1CCCC1,> 100 µM (inactive),–,> 100 µM (inactive),> 100 µM (inactive),> 100 µM (inactive),> 100 µM (inactive),> 100 µM (inactive),> 100 µM (inactive),> 100 µM (inactive),> 100 µM (inactive),> 100 µM (inactive),–,> 100 µM (inactive),–,> 100 µM (inactive),> 100 µM (inactive),> 100 µM (inactive),> 100 µM (inactive),> 100 µM (inactive),> 100 µM (inactive)
Oc1ccc(-c2nc3ccc(Br)cc3s2)cc1,22.2 µM (inactive),–,20 µM (inactive),–,18.2 µM (inactive),33.3 µM (inactive),20.4 µM (inactive),4.85 µM (inactive),16.3 µM (inactive),17.3 µM (inactive),–,12.9 µM (inactive),17.6 µM (inactive),10.7 µM (inactive),14.5 µM (inactive),17.9 µM (inactive),21.7 µM (inactive),16.3 µM (inactive),22.1 µM (inactive),15.7 µM (inactive)
Cc1ccc2c(c1)[n+]([O-])c(N)n[n+]2[O-],> 100 µM (inactive),> 100 µM (inactive),> 100 µM (inactive),> 100 µM (inactive),> 100 µM (inactive),> 100 µM (inactive),> 100 µM (inactive),> 100 µM (inactive),> 100 µM (inactive),> 100 µM (inactive),–,51.5 µM (inactive),> 100 µM (inactive),39.6 µM (inactive),> 100 µM (inactive),> 100 µM (inactive),47.8 µM (inactive),> 100 µM (inactive),63.2 µM (inactive),> 100 µM (inactive)

# Source: ChEMBL document CHEMBL1201862, “PubChem BioAssay data set” (2004)
